Test results from ChEMBL document CHEMBL1146128, “Azolylchromans as a novel scaffold for anticonvulsant activity” (2006).

Assays:
Settings in all cases: route intraperitoneal
Mus musculus [1] = experiment: Seizure latency in PTZ-induced lethal convulsions in mice at 5 mg/kg, ip; assay type: functional
Mus musculus [2] = experiment: Hind limb tonic extension in PTZ-induced lethal convulsions in mice at 5 mg/kg, ip; assay type: functional, Hindlimb
Mus musculus [3] = experiment: Mortality in PTZ-induced lethal convulsions in mice at 5 mg/kg, ip; assay type: functional
Mus musculus [4] = experiment: Hind limb tonic extension in PTZ-induced lethal convulsions in mice at 150 mg/kg, ip; assay type: functional, Hindlimb
Mus musculus [5] = experiment: Mortality in PTZ-induced lethal convulsions in mice at 150 mg/kg, ip; assay type: functional
Mus musculus [6] = experiment: Seizure latency in PTZ-induced lethal convulsions in mice at 150 mg/kg, ip; assay type: functional

| SMILES | Activity (Mus musculus [1]) [min] | Activity (Mus musculus [2]) [%] | Activity (Mus musculus [3]) [%] | Activity (Mus musculus [4]) [%] | Activity (Mus musculus [5]) [%] | Activity (Mus musculus [6]) [min] |
| --- | --- | --- | --- | --- | --- | --- |
| C[C@@H]1Oc2ccccc2C(=O)[C@H]1n1ccnc1 (relative stereo) | 17 | 100 | 67 |  |  |  |
| O=c1c(-n2cnnc2)coc2ccccc12 | 10 | 100 | 100 |  |  |  |
| O/N=C1/c2ccc(Cl)cc2OCC1n1cnnc1 (configuration not stated) | 2.5 | 100 | 100 |  |  |  |
| O/N=C1/c2ccccc2OCC1n1cncn1 (configuration not stated) | 4 | 100 | 100 |  |  |  |
| O/N=C1/c2ccccc2OCC1n1ccnc1 (configuration not stated) | 7.8 | 83 | 0 |  |  |  |
| C[C@H]1Oc2ccccc2C(=O)[C@@H]1n1cnnc1 (relative stereo) | 7.17 | 100 | 100 |  |  |  |
| O=C1c2ccc(Cl)cc2OCC1n1ccnc1 (configuration not stated) | 23.5 | 0 | 0 |  |  |  |
| Cc1oc2ccccc2c(=O)c1-n1cnnc1 | 5 | 100 | 100 |  |  |  |
| O/N=C1\c2ccccc2OCC1n1ccnc1 (configuration not stated) | 5.5 | 100 | 100 |  |  |  |
| O=C1c2ccccc2OCC1n1cnnc1 (configuration not stated) | 2.83 | 100 | 100 |  |  |  |
| O/N=C1/c2ccc(Cl)cc2OCC1n1ccnc1 (configuration not stated) | 5.83 | 100 | 100 |  |  |  |
| O=C1c2ccc(Cl)cc2OCC1n1cncn1 (configuration not stated) | 2.5 | 100 | 100 |  |  |  |
| O=C1c2ccc(Cl)cc2OCC1n1cnnc1 (configuration not stated) | 4.67 | 100 | 83 |  |  |  |
| C[C@H]1Oc2cc(Cl)ccc2C(=O)[C@@H]1n1cnnc1 (relative stereo) | 10 | 83 | 83 |  |  |  |
| C[C@@H]1Oc2cc(Cl)ccc2C(=O)[C@H]1n1ccnc1 (relative stereo) | 18.6 | 67 | 67 |  |  |  |
| CCCC(CCC)C(=O)[O-].[Na+] [VALPROATE SODIUM] |  |  |  | 0 | 0 | 15.65 |
| O=C1c2ccccc2OCC1n1ccnc1 (configuration not stated) | 2 | 83 | 83 |  |  |  |
| O=C1c2ccccc2OCC1n1cncn1 (configuration not stated) | 22 | 17 | 17 |  |  |  |
| O/N=C1\c2ccccc2OCC1[n+]1cnc[nH]1 (configuration not stated) | 7.17 | 100 | 100 |  |  |  |
